In patent publication US10641781B2, “Method, composition and device for sampling natriuretic peptides in a biological fluid” (CRIMSON U.S. ASSETS, LLC, priority 2008, dated 2020):
“Also recorded” adds a separate entry of the source. Counter-ions that a name gives are not always drawn. Where a SMILES comes first, the peptide text is derived from it. [ ]: non-standard residue; d: D form. The star is where a group is joined. Sta = CC(C)C[C@H](N)[C@@H](O)CC(=O)O; Isovaleryl = CC(C)CC(=O)*; CH2Cl = ClC*

Experiments:
[1] = system: BNP1-32 hydrolysis; assay: BNP1-32 hydrolysis in heparin plasma treated with protease inhibitors, room temperature, MSIA; format: biochemical, human; details: for effect on BNP hydrolysis: BNP1-32 10 ng/mL
From the text: (§1) In order to observe, characterize and identify the BNP hydrolysis products a Mass Spectrometric Immunoassay (MSIA) was developed and employed in the analysis of BNP. This technique is broadly described in, e.g., Nelson et al. (1995) Anal. Chem. 67, 1153-1158; Tubbs et al. (2001) Anal. Biochem. 289, 26-35; Kiernan et al. (2002) Anal. Biochem. 301, 49-56; Niederkofler et al. (2003) J. Lipid Res. 44, 630-639 and U.S. Pat. Nos. 6,783,672; 6,974,704; 7,083,723; 7,083,724; 7,087,163; 7,087,164; 7,087,165; and 7,087,163. The basic methodology is described in the context of BNP although the technique is also applicable to ANP and other peptides of interest.
(§2) Briefly, MSIA entails the use of affinity capture, to extract BNP and many of its' hydrolysis products for mass spectrometric detection, to observe and identify products of BNP hydrolysis. Therefore, synthesized BNP1-32 was added to room temperature plasma (from blood collected in heparinized blood collection tubes). At a several times post-spiking BNP1-32 into the plasma, aliquots of the spiked plasma were analyzed to monitor the progress of BNP1-32 hydrolysis. The results of performing a series of analyses on aliquots removed and analyzed every hour for up to six hours post-addition of BNP1-32 at 100 ng/mL are shown in FIG. 2. […] The last two species are indistinguishable in the chart due to similar amino acid compositions. […]
Next, the individual protease inhibitors, including some of those included in protease inhibitor cocktail set III (EMD) were tested using the protocols described supra. Briefly, aliquots of heparin plasma were treated with each one of the protease inhibitors. To each aliquot of plasma, BNP1-32 was added at 10 ng/mL and incubated at room temperature. Aliquots were sequentially removed and analyzed for BNP hydrolysis.
Briefly, aliquots of heparin plasma were treated with each one of these protease inhibitors. To each aliquot of plasma, BNP1-32 was added at 10 ng/mL and incubated at room temperature. Aliquots were sequentially removed and analyzed for BNP hydrolysis.
Further testing added to the list of inexpensive protease inhibitors effective in combination with AEB SF in avoiding adducts starting with benzamidine hydrochloride (Calbiochem catalog no. 199001). […] Briefly, aliquots of heparin plasma were treated with the protease inhibitor. To each aliquot of plasma, BNP1-32 was added at 10 ng/mL and incubated at room temperature. Aliquots were sequentially removed and analyzed for BNP hydrolysis.
In addition, PPACK I dihydrochloride (Calbiochem catalog no. 520222) and PPACK II trifluoroacetate salt (Calbiochem catalog no. 520219) were also tested at a concentration of 1 mM each. […]

[2] = weak basic conditions (pH 8-9); cited from earlier work
[3] = system: BNP hydrolysis; assay: BNP hydrolysis in EDTA versus heparin plasma at room temperature, MSIA; format: biochemical, human; details: plasma spiked with BNP1-32, room temperature, aliquots at 1 hour and 2 hours
Procedure: Blood from a single individual was collected in both heparin and EDTA blood collection tubes. The collected blood was centrifuged to remove cellular components and the supernatant (plasma) was collected. To the EDTA and heparin plasma, BNP1-32 was added and incubated at room temperature with aliquots removed for analysis of BNP hydrolysis at 1 hour and 2 hours.

[4] = system: BNP hydrolysis; assay: BNP stability in plasma stored at -70 C, MSIA; format: biochemical, human; details: tested on day of collection and six months later
Procedure: The limited proteolysis prior to the addition of the protease inhibitors is preserved in the sample. The sampled plasma was assayed for the presence of BNP fragments on the day of collection and then six month later. […] This may reflect the presence of metalloproteinases in heparinized blood.
To examine this, BNP peptides corresponding to those previously identified as products resulting from the hydrolysis of BNP1-32 were synthesized and added to EDTA plasma treated with 10 mM AEBSF and 20 mM Benzamidine. An aliquot of the sample was analyzed for the added BNP peptides soon after the addition of the peptides to the plasma, while the rest of the plasma was stored at −70° C. for 7 weeks. After 7 weeks of storage the plasma was removed from the freezer, thawed and analyzed for the existence of the added BNP peptides.

[5] = system: proteolysis of BNP; details: sampled blood or plasma; cited from earlier work
[6] = cited from earlier work
[7] = Time course of BNP1-32 hydrolysis in plasma without inhibitor, by mass spectrometric immunoassay (MSIA); format: in vitro ADME, human; details: heparin plasma, no inhibitor, room temperature, BNP1-32 at 100 ng/mL, four hours after addition
From the text: as §1, §2

[8] = after separation of plasma from whole blood; cited from earlier work

In the case of `Cl.NCCc1ccc(S(=O)(=O)F)cc1` [AEBSF, 4-(2-Aminoethyl) benzenesulfonyl fluoride hydrochloride], the “effect on BNP hydrolysis” value ([1]; inhibitor at 1 mM, hydrochloride) is reported as “slowed the hydrolysis of BNP; also recorded: reduced BNP proteolysis”, the “effect on BNP hydrolysis” value ([1]; inhibitor at 2.5 mM, hydrochloride) is reported as “almost completely inhibited the hydrolysis of BNP; also recorded: reduced BNP proteolysis” and the “effect on BNP hydrolysis” value ([1]; inhibitor at 5 mM, hydrochloride) is reported as “almost completely inhibited the hydrolysis of BNP; also recorded: reduced BNP proteolysis”. For the same molecule, the “hydrolysis of the inhibitor” value [2] was “slow hydrolysis”.

For `N=C(N)c1ccccc1` [Benzamidine hydrochloride, Benzamidine], the “effectiveness in slowing BNP hydrolysis relative to other inhibitors” value ([1]; 1 mM) was “better than PPACK I and PPACK II, but it was not as effective as AEBSF”, the “effect on BNP hydrolysis” value ([1]; inhibitor at 1 mM) was “slowed the hydrolysis of BNP” and the “effect on BNP hydrolysis” value ([1]; inhibitor at 1 mM, listed as Benzamidine) was “reduced BNP proteolysis”.

For `CC(C)C[C@H](NC(=O)[C@@H](O)[C@H](N)Cc1ccccc1)C(=O)O` [Bestatin], the “effect on BNP hydrolysis” value ([1]; inhibitor at 0.5 mM) was “little or no effect on BNP proteolysis; also recorded: did not appreciably prevent the hydrolysis of BNP”.

With `CC(C)C[C@H](NC(=O)[C@H]1O[C@@H]1C(=O)O)C(=O)NCCCCN=C(N)N` [E64] the “effect on BNP hydrolysis” value ([1]; inhibitor at 1 mM) was “little or no effect on BNP proteolysis; also recorded: did not appreciably prevent the hydrolysis of BNP”.

For `O=C([O-])CN(CCN(CC(=O)[O-])CC(=O)O)CC(=O)[O-].[Na+].[Na+].[Na+]` [EDTA, ethylenediamine tetracetic acid], the “effect of anti-coagulant on BNP hydrolysis” value (from here on “effect of anti-coagulant”) [3] was “BNP hydrolysis stops with the formation of the BNP3-32; also recorded: reduce BNP hydrolysis” and the “BNP hydrolysis in EDTA plasma without protease inhibitors” value [4] was “the hydrolysis stops at the formation of the BNP3-32; also recorded: proteolysis of BNP1-32 leading to the formation of BNP3-32”.

In the case of `CC(=O)N[C@@H](CC(C)C)C(=O)N[C@@H](CC(C)C)C(=O)N[C@H](C=O)CCCNC(=N)N` [Leupeptin], the “effect on BNP hydrolysis” value ([1]; inhibitor at 0.1 mM) is reported as “slowed the hydrolysis of BNP” and the “effect on BNP hydrolysis” value ([1]; inhibitor at 1 mM) is reported as “slow BNP proteolysis”.

In the case of `NC(N)=NCCC[C@H](NC(=O)[C@H](Cc1ccccc1)NC(=O)[C@H](N)Cc1ccccc1)C(=O)CCl` [PPACK II] (H-[dF]-Phe-Arg-CH2Cl), the “effect on BNP hydrolysis” value ([1]; inhibitor at 1 mM) is reported as “slowed the rate of BNP hydrolysis; also recorded: reduced BNP proteolysis”.

With `Cl.Cl.NC(N)=NCCC[C@H](NC(=O)[C@@H]1CCCN1C(=O)[C@H](N)Cc1ccccc1)C(=O)CCl` [PPACK I] the “effect on BNP hydrolysis” value ([1]; inhibitor at 1 mM) was “slowed the rate of BNP hydrolysis; also recorded: reduced BNP proteolysis”.

In the case of `NC(N)=NCCC[C@H](NC(=O)[C@@H]1CCCN1C(=O)[C@H](N)Cc1ccccc1)C(=O)CCl` [PPACK], the “effectiveness in arresting proteolysis of BNP” value [5] is given as “most effective in arresting proteolysis of BNP”.

For `CC(C)CC(=O)N[C@H](C(=O)N[C@H](C(=O)N[C@@H](CC(C)C)[C@@H](O)CC(=O)N[C@@H](C)C(=O)N[C@@H](CC(C)C)[C@@H](O)CC(=O)O)C(C)C)C(C)C` [Pepstatin A] (Isovaleryl-VV[Sta]A[Sta]-OH), the “effect on BNP hydrolysis” value ([1]; inhibitor at 0.1 mM) was “little or no effect on BNP proteolysis; also recorded: did not appreciably prevent the hydrolysis of BNP”.

For “BNP1-32: 32-amino acid B-type natriuretic peptide; synthesized BNP1-32 spiked into plasma”, the “half-life (t1/2) in vivo” value [6] is given as “approximately 20 minutes”, the “hydrolysis of BNP1-32 in plasma” value [7] is given as “all of the BNP1-32 appears to have been processed into smaller peptides” and the “time within which BNP is proteolyzed in vitro” value [8] is given as ≤ 24 h.

With Heparin the “effect of anti-coagulant” value [3] was “relatively ineffective in preventing BNP proteolysis” and the “effect of anti-coagulant” value ([3]; listed as heparin) was “progress towards the production of BNP hydrolysis products smaller than the BNP3-32”.
